We go through 24 compounds from patent publication US8580790B2, “(Heterocycle/condensed piperidine)-(piperazinyl)-1-alkanone or (heterocycle/condensed pyrrolidine)-(piperazinyl)-1-alkanone derivatives and use thereof as p75 inhibitors” (Sanofi, priority 2009, dated 2013).

Where a name gives a salt, the structure may show the parent alone.

Data set [1] concerns human neuroblastoma strains SH-SY-5Y and SK-N-BE Bep 75. Kind of data set: Measurement of NGF-induced apoptosis (cell death detection ELISA). The following applies: SH-SY5Y, NGF 10 ng/ml, 48 h (SH-SY-5Y) or 24 h (SK-N-BE Bep 75), read-out: IC50 of inhibitory activity on NGF-induced apoptosis. Format: cell-based. On the procedure:
The SH-SY-5Y strain (human neuroblastoma) is cultured conventionally in a DMEM culture medium (Dulbecco's Modified Eagle's Medium) (Gibco BRL, France) containing FCS (5%) (foetal calf serum) (Boehringer Mannheim, Germany), sodium pyruvate (1 mM) and glutamine (4 mM) in culture flasks coated with collagen (Becton Dickinson, France).
(§1) The SK-N-BE parent strain (human neuroblastoma) and the Bep 75 clone, stably expressing the whole form of the human p75^NTR receptor (SK-N-BE Bep 75) are cultured conventionally in an RPMI culture medium containing FCS (5%), sodium pyruvate (1 mM) and glutamine (4 mM). For the SK-N-BE Bep 75 cells, hygromycin ([…] of medium) is added as selection agent.
The cells (human neuroblastoma strains SH-SY-5Y and SK-N-BE Bep 75) are placed in 35 mm diameter Petri dishes (Biocoat collagen I, (10^5 cells/well)) in an appropriate culture medium containing 5% of FCS, for 24 h. […] The degrees of apoptosis are measured 48 hours after the treatments in the case of the SH-SY-5Y strain, and 24 hours after in the case of the SK-N-BE Bep 75 strain, by quantification of the DNA fragment-associated cytoplasmic histones (cell death detection ELISA, Boehringer Mannheim, Germany). The degrees of apoptosis are expressed as amount of oligonucleosomes/10^5 cells. […]

For data set [2], the target named is T1, human p75^NTR receptor (Homo sapiens, UniProt P08138).
T1 construct: the whole form of the human p75^NTR receptor; expressed in transfected cells; the soluble AP fusion comes from the supernatant of transiently transfected HEK293 cells
T1 sequence (P08138 29-427): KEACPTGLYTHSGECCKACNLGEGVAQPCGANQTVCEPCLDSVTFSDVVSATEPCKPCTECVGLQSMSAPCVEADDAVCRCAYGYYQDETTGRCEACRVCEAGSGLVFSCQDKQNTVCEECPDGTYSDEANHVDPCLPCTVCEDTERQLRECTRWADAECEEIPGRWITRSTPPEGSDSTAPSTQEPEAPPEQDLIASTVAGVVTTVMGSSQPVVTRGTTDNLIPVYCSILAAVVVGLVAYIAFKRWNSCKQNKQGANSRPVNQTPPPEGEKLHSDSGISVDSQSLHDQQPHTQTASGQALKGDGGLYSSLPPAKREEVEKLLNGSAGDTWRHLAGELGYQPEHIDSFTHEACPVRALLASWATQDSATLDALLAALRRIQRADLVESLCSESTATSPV
Description: Dimerization of the p75NTR receptor independently of its ligand (soluble p75NTR-alkaline phosphatase binding to SK-N-BE Bep 75 cells). Format: cell-based. The following applies: soluble p75NTR-alkaline phosphatase 10 nM, 1 h preincubation at 37° C. The protocol: as §1
Study of the dimerization of the p75^NTR receptor independently of its ligand.
The p75^NTR receptor dimerization study is carried out on a cell suspension of the SK-N-BE Bep 75 strain. The cells (2.5×10^4 cells/well) are placed in wells (96-well plate) for 24 h, and then preincubated for 1 h at 37° C. in the presence or absence of the compounds according to the invention. Supernatant is then added, this supernatant being derived from the culture of HEK293 human cells of renal origin expressing, after 48 h of transfection, and secreting a soluble form of the p75^NTR receptor (extracellular part of the receptor) coupled to an alkaline phosphatase, at the final concentration of 10 nM. The quantification of the specific binding of the soluble p75^NTR receptor to the receptor present on SK-N-BE Bep 75 cells is determined by measuring the alkaline phosphatase enzyme activity after incubation of the cells for 1 hour at 37° C. in the presence of the supernatant. After filtration and transfer of the filters into 24-well plates, the alkaline phosphatase activity is determined by adding CDP-Star chemiluminescent substrate (ready-to-use, Roche). The concentrations inhibiting 50% (Cl50) of the dimerization of the p75^NTR receptor, of the compounds according to the invention, are low and range from 10^−6 to 10^−11M.

For the compound `C[C@@H]1CN(c2ccc(C(F)(F)F)cn2)C[C@H](C)N1CC(=O)N1CCc2nc(-c3ccccc3)sc2C1` [compound 9, 2-[(2S,6R)-2,6-dimethyl-4-(5-trifluoromethylpyridin-2-yl)piperazin-1-yl]-1-(2-phenyl-6,7-dihydro-4H-thiazolo[5,4-c]pyridin-5-yl)ethanone], the 50% inhibitory concentration (IC50) was determined as 0.72 nM in data set [1] and 0.73 nM in data set [2].

`O=C(O)c1ccc(N2C3CCC2CN(CC(=O)N2CCc4nn(-c5ccccc5)cc4C2)C3)nc1` [compound 24, 6-{3-[2-oxo-2-(2-phenyl-2,4,6,7-tetrahydropyrazolo[4,3-c]pyridin-5-yl)ethyl]-3,8-diazabicyclo[3.2.1]oct-8-yl}nicotinic acid]: the melting point lay in the range of 202 to 206 °C. In data set [2], this compound registered an IC50 of 1.55 nM.

With `O=C(CN1CCN(c2ccc(C(F)(F)F)cn2)C(=O)C1)N1CCc2nc(-c3ccccc3)sc2C1` [compound 11, 4-[2-oxo-2-(2-phenyl-6,7-dihydro-4H-thiazolo[5,4-c]pyridin-5-yl)ethyl]-1-(5-trifluoromethylpyridin-2-yl)piperazin-2-one], the concentration for half-maximal inhibition (IC50) in data set [1] was determined as 4.46 nM; in data set [2], 1.9 nM.

Turning to `O=C(CN1CC2CCC(C1)N2c1ncc(F)cn1)N1CCc2nc(-c3ccccc3)[nH]c2C1`, the melting point was 130 to 132 °C.

In turn, `O=C(CN1CC2CCC(C1)N2c1ncc(F)cn1)N1CCc2c(cnn2-c2ccc(F)cc2)C1` gave a melting point of 151 to 152 °C.

Turning to `O=C(CN1CCN(c2ccc(C(F)(F)F)cn2)C(=O)C1)N1CCc2oc(-c3ccccc3)nc2C1` [compound 83, 4-[2-oxo-2-(2-phenyl-6,7-dihydro-4H-oxazolo[4,5-c]pyridin-5-yl)ethyl]-1-(5-trifluoromethylpyridin-2-yl)piperazin-2-one], the melting point is 140 to 142 °C.

With `O=C(CN1CC2CCC(C1)N2c1ncc(F)cn1)N1CCc2nc(-c3cccnc3)sc2C1`, the melting point was 200 to 202 °C.

As for `O=C(CN1CC2CCC(C1)N2c1ccc(C(F)(F)F)cn1)N1CCc2nc(-c3ccccc3)[nH]c2C1`, the melting point lay in the range of 150 to 152 °C.

On to `O=C(CN1CCN(c2ccc(C(F)(F)F)cn2)C(=O)C1)N1CCc2nn(-c3ccccn3)cc2C1` [compound 119, 4-[2-oxo-2-(2-pyridin-2-yl-2,4,6,7-tetrahydropyrazolo[4,3-c]pyridin-5-yl)ethyl]-1-(5-trifluoromethylpyridin-2-yl)piperazin-2-one], for which the melting point lay in the range of 139 to 140 °C.

In turn, `C[C@@H]1CN(c2ccc(-c3nccs3)cn2)C[C@H](C)N1CC(=O)N1CCc2nn(-c3ccccc3)cc2C1` [compound 135, 2-[(2S,6R)-2,6-dimethyl-4-(5-thiazol-2-ylpyridin-2-yl)piperazin-1-yl]-1-(2-phenyl-2,4,6,7-tetrahydropyrazolo[4,3-c]pyridin-5-yl)ethanone] registered a melting point of 173 to 174 °C.

`C[C@@H]1CN(c2ccc(C(=O)O)cn2)C[C@H](C)N1CC(=O)N1CCc2nn(C(C)(C)C)cc2C1` [compound 105, 6-{(3S,5R)-4-[2-(2-tert-butyl-2,4,6,7-tetrahydropyrazolo[4,3-c]pyridin-5-yl)-2-oxoethyl]-3,5-dimethylpiperazin-1-yl}nicotinic acid] yielded a melting point of 120 to 121 °C.

In turn, `O=C(O)c1ccc(N2C3CCC2CN(CC(=O)N2CCc4nc(-c5ccsc5)sc4C2)C3)nc1` had a melting point of 262 to 264 °C.

Take `C[C@@H]1CN(c2ccc(-c3nnco3)cn2)C[C@H](C)N1CC(=O)N1CCc2nn(-c3ccccc3)cc2C1` [compound 90, 2-[(2S,6R)-2,6-dimethyl-4-(5-[1,3,4]oxadiazol-2-ylpyridin-2-yl)piperazin-1-yl]-1-(2-phenyl-2,4,6,7-tetrahydropyrazolo[4,3-c]pyridin-5-yl)ethanone]: the melting point lay within 189 to 190 °C.

On to `C[C@@H]1CN(c2ccc(C(=O)O)cn2)C[C@H](C)N1CC(=O)N1CCc2nn(-c3ccccc3)cc2C1` (as salt: HCl) [compound 21, 6-{(3S,5R)-3,5-dimethyl-4-[2-oxo-2-(2-phenyl-2,4,6,7-tetrahydropyrazolo[4,3-c]pyridin-5-yl)ethyl]piperazin-1-yl}nicotinic acid], for which the melting point fell in the range of 209 to 211 °C.

The compound `O=C(CN1CC2CCC(C1)N2c1ncc(F)cn1)N1CCc2nc(-c3ccc(F)cc3)sc2C1` returned a melting point of 196 to 198 °C.

Regarding `O=C(CN1CC2CCC(C1)N2c1ncc(F)cn1)N1CCc2cc(-c3ccccc3)oc2C1`, the melting point fell in the range of 165 to 167 °C.

Compound `O=C(CN1CCN(c2ccnc3cc(Cl)ccc23)CC1)N1CCc2nn(-c3ccccc3)cc2C1` [compound 113, 2-[4-(7-chloroquinolin-4-yl)piperazin-1-yl]-1-(2-phenyl-2,4,6,7-tetrahydropyrazolo[4,3-c]pyridin-5-yl)ethanone] showed a melting point of 100 to 101 °C.

As for `O=C(O)c1ccc(N2C3CCC2CN(CC(=O)N2CCc4nc(-c5ccc(F)cc5)sc4C2)C3)nc1`, the melting point is 240 to 244 °C.

`O=C(CN1CC2CCC(C1)N2c1ccc(C(F)(F)F)cn1)N1CCc2nc(-c3ccc(F)cc3)[nH]c2C1` came in with a melting point of 148 to 150 °C.

Consider `COC(=O)c1ccc(N2CCN(CC(=O)N3CCc4nc(-c5ccccc5)sc4C3)CC2=O)nc1` [compound 25, 6-{2-oxo-4-[2-oxo-2-(2-phenyl-6,7-dihydro-4H-thiazolo[5,4-c]pyridin-5-yl)ethyl]piperazin-1-yl}nicotinic acid methyl ester], for which the melting point is 191 to 192 °C.

For the compound `COC(=O)c1ccc(N2CC3CCC(C2)N3CC(=O)N2CCc3nn(-c4ccccc4)cc3C2)nc1`, the melting point is 157 to 158 °C.

Compound `COC(=O)c1ccc(N2C3CCC2CN(CC(=O)N2CCc4nc(-c5ccc(OC)cc5)sc4C2)C3)nc1` yielded a melting point of 159 to 160 °C.

Take `Cc1nc(-c2ccc(N3C4CCC3CN(CC(=O)N3CCc5nc(-c6ccccc6)sc5C3)C4)nc2)no1`: the melting point is 190 to 192 °C.

Consider `COC(=O)c1ccc(N2C3CCC2CN(CC(=O)N2CCc4nn(-c5ccccc5)cc4C2)C3)nc1` [compound 19, 6-{3-[2-oxo-2-(2-phenyl-2,4,6,7-tetrahydropyrazolo[4,3-c]pyridin-5-yl)ethyl]-3,8-diazabicyclo[3.2.1]oct-8-yl}nicotinic acid methyl ester], for which the melting point was in the range of 204 to 205 °C. The compound further registered a concentration for half-maximal inhibition (IC50) in data set [2] of 14 nM.

The term IC50 denotes the concentration needed to halve the response being measured. In general, melting point refers to the temperature of the solid-liquid transition.
